Structures can show the parent of a compound that is named as a salt.
Legend:
Conditions in all cases: HepG2, doxorubicin HCl 25 nM, standard 11
abcA10 = assay: DT1 microarray drug screening, drug-treated HepG2: abcA10; format: cell-based, human
Protocol: (§1) The labelled cDNA target preparation was thawed and the 150 μl added to 850 ul hybridisation buffer (500 mM sodium Phosphate pH 6.0, 1% SDS, 1% BSA, 1 mM EDTA) in a 1.5 ml microtube and heated at 95° C. for 10 min.

abcC1 = assay: DT1 microarray drug screening, drug-treated HepG2: abcC1
abcC9 = assay: DT1 microarray drug screening, drug-treated HepG2: abcC9; format: cell-based, human
Protocol: as §1

abcC6 = assay: DT1 microarray drug screening, drug-treated HepG2: abcC6; format: cell-based, human
Protocol: as §1

abcD2 = assay: DT1 microarray drug screening, drug-treated HepG2: abcD2; format: cell-based, human
Protocol: as §1

abcA5 = assay: DT1 microarray drug screening, drug-treated HepG2: abcA5; format: cell-based, human
Protocol: as §1

abcB2 = assay: DT1 microarray drug screening, drug-treated HepG2: abcB2; format: cell-based, human
Protocol: as §1

abcD1 = assay: DT1 microarray drug screening, drug-treated HepG2: abcD1; format: cell-based, human
Protocol: as §1

abcC10 = assay: DT1 microarray drug screening, drug-treated HepG2: abcC10; format: cell-based, human
Protocol: as §1

abcC12 = assay: DT1 microarray drug screening, drug-treated HepG2: abcC12; format: cell-based, human
Protocol: as §1

abcC5 = assay: DT1 microarray drug screening, drug-treated HepG2: abcC5; format: cell-based, human
Protocol: as §1

abcF3 = assay: DT1 microarray drug screening, drug-treated HepG2: abcF3; format: cell-based, human
Protocol: as §1

abcB11 = assay: DT1 microarray drug screening, drug-treated HepG2: abcB11; format: cell-based, human
Protocol: as §1

abcA4 = assay: DT1 microarray drug screening, drug-treated HepG2: abcA4; format: cell-based, human
Protocol: as §1

abcD4 = assay: DT1 microarray drug screening, drug-treated HepG2: abcD4; format: cell-based, human
Protocol: as §1

abcC4 = assay: DT1 microarray drug screening, drug-treated HepG2: abcC4; format: cell-based, human
Protocol: as §1

abcA2 = assay: DT1 microarray drug screening, drug-treated HepG2: abcA2; format: cell-based, human
Protocol: as §1

abcC7 = assay: DT1 microarray drug screening, drug-treated HepG2: abcC7; format: cell-based, human
Protocol: as §1

abcA9 = assay: DT1 microarray drug screening, drug-treated HepG2: abcA9; format: cell-based, human
Protocol: as §1

abcF1 = assay: DT1 microarray drug screening, drug-treated HepG2: abcF1; format: cell-based, human
Protocol: as §1

abcG1 = assay: DT1 microarray drug screening, drug-treated HepG2: abcG1; format: cell-based, human
Protocol: as §1

abcD3 = assay: DT1 microarray drug screening, drug-treated HepG2: abcD3; format: cell-based, human
Protocol: as §1

abcB1 = assay: DT1 microarray drug screening, drug-treated HepG2: abcB1; format: cell-based, human
Protocol: as §1

abcB4 = assay: DT1 microarray drug screening, drug-treated HepG2: abcB4; format: cell-based, human
Protocol: as §1

Compound: COc1cccc2c1C(=O)c1c(O)c3c(c(O)c1C2=O)C[C@@](O)(C(=O)CO)C[C@@H]3O[C@H]1C[C@H](N)[C@H](O)[C@H](C)O1 [dox, doxorubicin HCl]
- relative level of abcA10 gene expression (abcA10; 4 h): 3.419
- relative level of abcA10 gene expression (abcA10; 8 h): 3.793
- relative level of abcC1 gene expression (abcC1; 2 h): 7.005
- relative level of abcC1 gene expression (abcC1; 4 h): 4.767
- relative level of abcC1 gene expression (abcC1; 8 h): 5.056
- relative level of abcC9 gene expression (abcC9; 2 h): 5.598
- relative level of abcC9 gene expression (abcC9; 4 h): 3.678
- relative level of abcC9 gene expression (abcC9; 8 h): 3.982
- relative level of abcC6 gene expression (abcC6; 2 h): 7.696
- relative level of abcC6 gene expression (abcC6; 4 h): 4.516
- relative level of abcC6 gene expression (abcC6; 8 h): 4.899
- relative level of abcD2 gene expression (abcD2; 2 h): 2.503
- relative level of abcD2 gene expression (abcD2; 4 h): 2.516
- relative level of abcD2 gene expression (abcD2; 8 h): 2.409
- relative level of abcA5 gene expression (abcA5; 2 h): 3.302
- relative level of abcA5 gene expression (abcA5; 4 h): 2.021
- relative level of abcA5 gene expression (abcA5; 8 h): 2.451
- relative level of abcB2 gene expression (abcB2; 2 h): 5.067
- relative level of abcB2 gene expression (abcB2; 4 h): 3.715
- relative level of abcB2 gene expression (abcB2; 8 h): 4.008
- relative level of abcD1 gene expression (abcD1; 2 h): 4.477
- relative level of abcD1 gene expression (abcD1; 4 h): 3.386
- relative level of abcD1 gene expression (abcD1; 8 h): 3.516
- relative level of abcC10 gene expression (abcC10; 2 h): 5.151
- relative level of abcC10 gene expression (abcC10; 4 h): 3.335
- relative level of abcC10 gene expression (abcC10; 8 h): 3.633
- relative level of abcC12 gene expression (abcC12; 2 h): 5.226
- relative level of abcC12 gene expression (abcC12; 4 h): 3.532
- relative level of abcC12 gene expression (abcC12; 8 h): 3.976
- relative level of abcC5 gene expression (abcC5; 2 h): 10.51
- relative level of abcC5 gene expression (abcC5; 4 h): 6.29
- relative level of abcC5 gene expression (abcC5; 8 h): 6.522
- relative level of abcF3 gene expression (abcF3; 2 h): 3.921
- relative level of abcF3 gene expression (abcF3; 4 h): 2.795
- relative level of abcF3 gene expression (abcF3; 8 h): 2.793
- relative level of abcB11 gene expression (abcB11; 2 h): 5.31
- relative level of abcB11 gene expression (abcB11; 4 h): 3.404
- relative level of abcB11 gene expression (abcB11; 8 h): 3.888
- relative level of abcA4 gene expression (abcA4; 2 h): 8.765
- relative level of abcA4 gene expression (abcA4; 4 h): 4.535
- relative level of abcA4 gene expression (abcA4; 8 h): 6.099
- relative level of abcD4 gene expression (abcD4; 2 h): 4.361
- relative level of abcD4 gene expression (abcD4; 4 h): 3.103
- relative level of abcD4 gene expression (abcD4; 8 h): 3.194
- relative level of abcC4 gene expression (abcC4; 2 h): 2.612
- relative level of abcC4 gene expression (abcC4; 4 h): 2.09
- relative level of abcC4 gene expression (abcC4; 8 h): 2.286
- relative level of abcA2 gene expression (abcA2; 2 h): 6.224
- relative level of abcA2 gene expression (abcA2; 4 h): 2.947
- relative level of abcA2 gene expression (abcA2; 8 h): 4.022
- relative level of abcC7 gene expression (abcC7; 2 h): 7.481
- relative level of abcC7 gene expression (abcC7; 4 h): 4.5794
- relative level of abcC7 gene expression (abcC7; 8 h): 5.093
- relative level of abcA9 gene expression (abcA9; 2 h): 7.825
- relative level of abcA9 gene expression (abcA9; 4 h): 4.817
- relative level of abcA9 gene expression (abcA9; 8 h): 5.72
- relative level of abcF1 gene expression (abcF1; 2 h): 2.485
- relative level of abcF1 gene expression (abcF1; 4 h): 2.87
- relative level of abcF1 gene expression (abcF1; 8 h): 2.662
- relative level of abcG1 gene expression (abcG1; 2 h): 5.472
- relative level of abcG1 gene expression (abcG1; 4 h): 3.555
- relative level of abcG1 gene expression (abcG1; 8 h): 3.839
- relative level of abcD3 gene expression (abcD3; 2 h): 2.099
- relative level of abcD3 gene expression (abcD3; 4 h): 1.787
- relative level of abcD3 gene expression (abcD3; 8 h): 1.733
- relative level of abcB1 gene expression (abcB1; 2 h): 6.735
- relative level of abcB1 gene expression (abcB1; 4 h): 3.865
- relative level of abcB1 gene expression (abcB1; 8 h): 4.759
- relative level of abcB4 gene expression (abcB4; 2 h): 9.148
- relative level of abcB4 gene expression (abcB4; 4 h): 5.624
- relative level of abcB4 gene expression (abcB4; 8 h): 6.417

From patent US20070026408A1, “Materials and methods for analysis of atp-binding cassette transporter gene expression” (priority 2003, published 2007)
